Structures are written as SMILES. Where two headings read alike, the source gives them in different places.

The target in series [1] is T1, VR1 (Homo sapiens, UniProt Q8NER1). Put plainly: Acid stimulation assay (FDSS 6000). The class given is cell-based. The note with it: final assay buffer pH5.8, 15 min pre-incubation. Here is the method: The Acid-induced changes in the intracellular calcium concentration were monitored using FDSS 6000 (Hamamatsu Photonics, Japan), a fluorometric imaging system. The cell suspension in resting buffer (HBSS supplemented with 10 mM HEPES, pH 7.4) was pre-incubated with varying concentrations of the test compounds or resting buffer (buffer control) for 15 minutes at room temperature under dark conditions. The cells were automatically added the stimulating solution (HBSS supplemented with MES, final assay buffer pH5.8) by the FDSS 6000.
Target sequence in this assay (Q8NER1 whole entry, species assumed): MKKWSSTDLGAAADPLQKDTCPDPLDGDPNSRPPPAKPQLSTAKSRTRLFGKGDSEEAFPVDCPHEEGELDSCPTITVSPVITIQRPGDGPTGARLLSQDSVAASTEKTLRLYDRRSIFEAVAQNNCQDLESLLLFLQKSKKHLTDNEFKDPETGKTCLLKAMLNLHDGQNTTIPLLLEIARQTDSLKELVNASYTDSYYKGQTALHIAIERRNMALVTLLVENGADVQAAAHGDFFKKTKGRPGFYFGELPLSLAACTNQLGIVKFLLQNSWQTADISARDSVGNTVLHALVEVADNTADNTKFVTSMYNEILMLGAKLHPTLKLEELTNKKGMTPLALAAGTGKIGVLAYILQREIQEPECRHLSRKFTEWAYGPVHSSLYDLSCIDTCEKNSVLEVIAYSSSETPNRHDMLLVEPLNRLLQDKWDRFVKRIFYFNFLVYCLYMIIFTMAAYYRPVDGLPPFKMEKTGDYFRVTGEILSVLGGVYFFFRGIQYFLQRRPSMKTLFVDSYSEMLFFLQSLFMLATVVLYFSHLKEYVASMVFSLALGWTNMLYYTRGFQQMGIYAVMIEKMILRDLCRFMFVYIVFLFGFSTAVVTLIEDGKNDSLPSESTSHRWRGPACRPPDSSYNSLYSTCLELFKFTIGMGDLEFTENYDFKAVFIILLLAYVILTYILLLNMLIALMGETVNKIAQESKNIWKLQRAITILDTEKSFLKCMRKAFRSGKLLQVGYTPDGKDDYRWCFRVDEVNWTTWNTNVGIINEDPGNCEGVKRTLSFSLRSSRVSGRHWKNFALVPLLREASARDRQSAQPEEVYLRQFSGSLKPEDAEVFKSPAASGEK

In series [2] the target is T1, VR1. Put plainly: Calcium uptake assay, low pH (proton) agonist. Type of series: cell-based. Further details: expressed in transfected cells; host or cells: T-REx HEK 293 (Invitrogen), pcDNA5/TO vector.
Target sequence in this assay (Q8NER1 whole entry): as the sequence (Q8NER1 whole entry, species assumed) above
Series [3] in a line: Half-life in human liver microsomes (HLM). The note with it: pH 7.4, 1 μM compound, 0.78 mg/mL HLM, 37° C. Type of series: in vitro ADME. The procedure:
Test compounds (1 μM) are incubated with 3.3 mM MgCl2 and 0.78 mg/mL HLM (HL101) in 100 mM potassium phosphate buffer (pH 7.4) at 37° C. on the 96-deep well plate. The reaction mixture is split into two groups, a non-P450 and a P450 group. NADPH is only added to the reaction mixture of the P450 group. An aliquot of samples of P450 group is collected at 0, 10, 30, and 60 min time point, where 0 min time point indicated the time when NADPH is added into the reaction mixture of P450 group. An aliquot of samples of non-P450 group is collected at −10 and 65 min time point. Collected aliquots are extracted with acetonitrile solution containing an internal standard. The precipitated protein is spun down in centrifuge (2000 rpm, 15 min). The compound concentration in supernatant is measured by LC/MS/MS system.
The half-life value is obtained by plotting the natural logarithm of the peak area ratio of compounds/internal standard versus time. The slope of the line of best fit through the points yields the rate of metabolism (k). This is converted to a half-life value using following equations: […]

A short description of series [4]: Pharmacokinetic evaluation following intravenous and oral administration in rats. The class given is in vivo. The note with it: male, Sprague-Dawley, plasma, rat; for bioavailability: AUCinf (PO)/AUCinf (IV), dose normalized, PO 5 mg/kg, read-out: Oral Bioavailability F (%); for clearance: non-compartmental analysis, read-out: In vivo Clearance (converted). The procedure: Male Sprague-Dawley rats are acclimatized for at least 24 hours prior to experiment initiation. During acclimation period, all animals receive food and water ad libitum. However, food but not water is removed from the animal's cages at least 12 hours before initiation of the experiment. During the first 3 hours of experimentation, the animals receive only water ad libitum. At least three animal each are tested for intravenous and oral dosage. For intravenous formulation, compounds were dissolved (0.25 to 1 mg/mL) in a mixture of 3% dimethyl sulfoxide, 40% PEG 400 and the rest percentage of 40% Captisol in water (w/v). For oral formulation, compounds of this invention are dissolved (2 mg/mL) in a mixture of 5% of 10% Tween 80 in water (v/v) and 95% of 0.5% methyl cellulose in water (w/v). The animals are weighed before dosing. The determined body weight is used to calculate the dose volume for each animal.
Dose volume(mL/kg)=1 mg/kg/formulation concentration(mg/mL)
In instances where the formulation concentrations were less than 0.5 mg/mL, the dosing volume is about 2 mL/kg. PO rats are typically dosed through oral gavage at 2.5 mL/kg to achieve a dose level of 5 mg/kg. For IV dosing, blood samples are collected (using a pre-heparinized syringe) via the jugular vein catheter at 2, 5, 15, 30, 60, 120, 180, 300, 480, and 1440 minutes post dosing. For PO dosing, blood samples are collected (using a pre-heparinized syringe) via the jugular vein catheter before dosing and at 5, 15, 30, 60, 120, 180, 300, 480, and 1440 minutes post dosing. About 250 uL of blood is obtained at each time point from the animal. Equal volumes of 0.9% normal saline are replaced to prevent dehydration. The whole blood samples are maintained on ice until centrifugation. Blood samples are then centrifuged at 14,000 rpm for 10 minutes at 4° C. and the upper plasma layer transferred into a clean vial and stored at −80° C. The resulting plasma samples are then analyzed by liquid chromatography-tandem mass spectrometry. Following the measurement of plasma samples and dosing solutions, plasma concentration-time curve is plotted. Plasma exposure is calculated as the area under the concentration-time curve extrapolated to time infinite (AUCinf). The AUCinf is averaged and the oral bioavailability (% F) for individual animal is calculated as:
AUCinf (PO)/AUCinf (IV), normalized to their respective dose levels. The % F is reported as the mean % F of all animals dosed orally with the compound of the invention at the specified level (Table 6).
In vivo clearance in the rat was calculated by conducting a non-compartmental analysis of the pharmacokinetic profile using WinNonlin software.

Setting [5] is: HEK293, 0.3 μM compound, low pH (protons) as agonist, HEK 293 cells expressing hVR1, read-out: Low pH % Inhib. @ 0.3 μM.

As for `CC(=O)n1ccc2cc(NC(=O)c3ccc(/C=C/C(F)(F)F)cc3C)cnc21` [Compound 408, (E)-N-(1-acetyl-1H-pyrrolo[2,3-b]pyridin-5-yl]-2-methyl-4-(3,3,3-trifluoroprop-1-enyl)benzamide], half-maximal inhibition in series [1] (IC50) required 61 nM. Further, in series [2] (HEK293, read-out: Low pH % Inhib. @ 0.3 μM), the inhibition at 0.3 µM worked out at 91%.
In turn, `Cc1cc(/C=C/C(F)(F)F)ccc1C(=O)Nc1ccc2c(c1)C(O)CCC2` (centres unmarked) [Compound 307, (E)-N-(8-hydroxy-5,6,7,8-tetrahydronaphthylen-2-yl)-2-methyl-4-(3,3,3-trifluoroprop-1-enyl)benzamide] came in with a half-maximal inhibitory concentration (IC50) in series [1] of 118 nM. Besides, the inhibition at 0.3 µM in series [2] (setting [5]) is 75%.
The matching figures for `Cc1cc(/C=C/C(F)(F)F)ccc1C(=O)Nc1ccc2c(c1)N(S(C)(=O)=O)CC2` [Compound 401, (E)-N-(1-methanesulfonyl-2,3-dihydro-1H-indol-6-yl]-2-methyl-4-(3,3,3-trifluoroprop-1-enyl)benzamide]: 94 nM and 88%.
On the same counts, the results for `Cc1cc(/C=C/C(F)(F)F)ccc1C(=O)Nc1ccc2c(c1)N(C(=O)CO)CC2` [Compound 407, (E)-N-(1-(2-hydroxyacetyl)-indolin-yl)-2-methyl-4-(3,3,3-trifluoro-Prop-1-enyl)benzamide] are 32 nM and 95%.
Compound `Cc1cc(/C=C/C(F)(F)F)ccc1C(=O)Nc1ccc2cc(C(C)(C)O)cnc2c1` [Compound 303, (E)-N-(3-(2-Hydroxypropan-2-yl)quinolin-7-yl)-2-methyl-4-(3,3,3-trifluoroprop-1-enyl)benzamide] returned an IC50 in series [1] of 37 nM. In series [3], this compound had a half-life at 1 μM of 57.6 min. In series [4], the bioavailability was greater than 100% and the clearance is 11.3 mL/min/kg. For the same compound, the inhibition at 0.3 µM in series [2] (setting [5]) is 90%.
For the compound `Cc1cc(/C=C/C(F)(F)F)ccc1C(=O)Nc1cccc2c1C[C@@H](O)CC2` (single isomer, unassigned) [Compound 313], the half-inhibitory concentration (IC50) in series [1] is 14 nM. For the same compound, the inhibition at 0.3 µM in series [2] (setting [5]) was 106%.
On to `Cc1cc(/C=C/C(F)(F)F)ccc1C(=O)Nc1cccc2ccc(O)cc12` [Compound 302, (E)-N-(7-hydroxynaphthalen-1-yl)-2-methyl-4-(3,3,3-trifluoroprop-1-enyl)benzamide], for which, in series [1], the IC50 was determined as 1 nM. The compound also gave a half-life at 1 μM in series [3] of 36.6 min. Also, in series [4], the bioavailability was found to be 2% and the clearance was 67.3 mL/min/kg.
The compound `Cc1cc(/C=C/C(F)(F)F)ccc1C(=O)Nc1cnc2cccnc2c1` [Compound 318, (E)-2-methyl-N-(1,5-naphthyridin-3-yl)-4-(3,3,3-trifluoroprop-1-enyl)benzamide] gave a concentration for half-maximal inhibition (IC50) in series [1] of 3 nM. This compound showed a half-life at 1 μM in series [3] of 178 min. Besides, in series [4], the bioavailability amounted to 59% and the clearance was 1.33 mL/min/kg. The inhibition at 0.3 µM in series [2] (setting [5]) is 104%.
On to `CCC(=O)N1CCc2ccc(NC(=O)c3ccc(/C=C/C(F)(F)F)cc3C)cc21` [Compound 406, (E)-2-methyl-N-(1-propionylindoline-6-yl]-4-(3,3,3-trifluoro-prop-1-enyl)benzamide], for which the midpoint of inhibition in series [1], the IC50, lay at 323 nM. Also, the inhibition at 0.3 µM in series [2] (setting [5]) came to 45%.
Take `Cc1nc2cc(NC(=O)c3ccc(/C=C/C(F)(F)F)cc3C)cnc2s1` [Compound 412, (E)-2-methyl-N-(2-methylthiazolo[5,4-b]pyridin-6-yl)-4-(3,3,3-trifluoroprop-1-enyl)benzamide]: in series [1], 20 nM corresponded to half-maximal inhibition (IC50). In series [3], this compound gave a half-life at 1 μM of 48.6 min. Also, in series [4], the bioavailability is 11% and the clearance was 7.17 mL/min/kg. For the same compound, in series [2] (setting [5]), the inhibition at 0.3 µM stood at 105%.
`Cc1cc(/C=C/C(F)(F)F)ccc1C(=O)Nc1cnc2c(c1)CCCC2` [Compound 312] had an IC50 in series [1] of 103 nM. Moreover, the inhibition at 0.3 µM in series [2] (setting [5]) was 97%.
On the same counts, the results for `Cc1cc(/C=C/C(F)(F)F)ccc1C(=O)Nc1cnc2c(c1)COC(CO)C2` (centres unmarked) [Compound 310, (E)-N-(7-hydroxymethyl-7,8-dihydro-5H-pyrano[4,3-b]pyridin-3-yl)-2-methyl-4-(3,3,3-trifluoroprop-1-enyl)benzamide] are 109 nM and 71%.
On the same counts, the results for `Cc1cc(/C=C/C(F)(F)F)ccc1C(=O)Nc1ccc2sc(C(C)(C)O)nc2c1` [Compound 409, (E)-N-(2-(2-hydroxypropan-2-yl)benzo[d]thiazol-5-yl)-2-methyl-4-(3,3,3-trifluoroprop-1-enyl)benzamide] are 59 nM and 103%.
Turning to `Cc1cc(/C=C/C(F)(F)F)ccc1C(=O)Nc1cnc2scnc2c1` [Compound 415, (E)-2-methyl-N-(thiazolo[5,4-b]pyridin-6-yl)-4-(3,3,3-trifluoroprop-1-enyl)benzamide], the IC50 in series [1] was 8 nM. In series [3], the half-life at 1 μM was 289 min. In series [4], the bioavailability stood at 45% and the clearance is 0.833 mL/min/kg. For the same compound, the inhibition at 0.3 µM in series [2] (setting [5]) was 130%.
For `CC(=O)c1nc2cc(NC(=O)c3ccc(/C=C/C(F)(F)F)cc3C)ccc2s1` [Compound 410, (E)-N-(2-acetylbenzo[d]thiazol-5-yl)-2-methyl-4-(3,3,3-trifluoroprop-1-enyl)benzamide], 707 nM corresponded to half-maximal inhibition in series [1] (IC50). Further, the inhibition at 0.3 µM in series [2] (setting [5]) is 12%.
The matching figures for `Cc1cc(/C=C/C(F)(F)F)ccc1C(=O)Nc1ccc2nccnc2c1` [Compound 325, (E)-2-methyl-N-(Quinoxalin-6-yl)-4-(3,3,3-trifluoroprop-1-enyl)benzamide]: 147 nM and 72.3%.
On the same counts, the results for `Cc1cc(/C=C/C(F)(F)F)ccc1C(=O)Nc1ccc2oc(CO)nc2c1` [Compound 411, (E)-N-(2-(hydroxymethyl)benzo[d]oxazol-5-yl)-2-methyl-(3,3,3-trifluoroprop-1-enyl)benzamide] are 28 nM and 102%.
On the same counts, the results for `Cc1cc(/C=C/C(F)(F)F)ccc1C(=O)Nc1cccc2c1C[C@H](O)CC2` (single isomer, unassigned) [Compound 314] are 23 nM and 121%.
As for `Cc1cc(/C=C/C(F)(F)F)ccc1C(=O)Nc1ccc2c(c1)N(C(=O)C(C)(C)C)CC2` [Compound 405, (E)-N-[1-(2,2-dimethyl-propionyl)-2,3-dihydro-1H-indol-6-yl]-2-methyl-4-(3,3,3-trifluoro-prop-1-enyl)benzamide], the inhibition at 0.3 µM in series [2] (setting [5]) was determined as 14%.
Compound `Cc1cc(/C=C/C(F)(F)F)ccc1C(=O)Nc1ccc2sc(C(C)O)nc2c1` (centres unmarked) [Compound 403] registered an IC50 in series [1] of 147 nM. Also, the inhibition at 0.3 µM in series [2] (setting [5]) was 81%.

The term IC50 denotes the midpoint of a concentration-inhibition curve. High values mean a need for much substance, low ones inhibition by little substance. By half-life is commonly meant how long it takes for the measured level to halve. Broadly, the bioavailability is dose-corrected exposure relative to a reference, in per cent.

For the origin of these results see patent publication US20100004222A1, “Amide Derivatives as Ion-Channel Ligands and Pharmaceutical Compositions and Methods of Using the Same” (Renovis, Inc., priority 2006, published 2010).
